Measured values taken from PMC6979384, “Characterization of the plant homeodomain (PHD) reader family for their histone tail interactions” (Epigenetics & Chromatin, 2020).

Legend:
Assay in all cases: Histone peptide microarray
Type in all cases: binding, human
PHF2 = settings: sheet "Array Heatmap"; GST-tagged PHF2; arrays performed twice, total replicate number n = 4
Outline: (§1)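 Readout is array binding signal, reported as the mean and standard deviation over four replicates. Each purified GST-fused PHD domain was incubated at 0.5 μM with a library of 293 modified histone peptides.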

KDM4C (TTP) = settings: sheet "Array Heatmap"; GST-tagged KDM4C (TTP); arrays performed twice, total replicate number n = 4
Outline: as §1

CHD4 (PPCC) = settings: sheet "Array Heatmap"; GST-tagged CHD4 (PPCC); arrays performed twice, total replicate number n = 4
Outline: as §1

CHD5 (PCC) = settings: sheet "Array Heatmap"; GST-tagged CHD5 (PCC); arrays performed twice, total replicate number n = 4
Outline: as §1

KDM5A (1) = settings: sheet "Array Heatmap"; GST-tagged KDM5A (1); arrays performed twice, total replicate number n = 4
Outline: as §1

ING4 = settings: sheet "Array Heatmap"; GST-tagged ING4; arrays performed twice, total replicate number n = 4
Outline: as §1

DIDO1 = settings: sheet "Array Heatmap"; GST-tagged DIDO1; arrays performed twice, total replicate number n = 4
Outline: as §1

TRIM66 (PB) = settings: sheet "Array Heatmap"; GST-tagged TRIM66 (PB); arrays performed twice, total replicate number n = 4
Outline: as §1

AIRE (PP) = settings: sheet "Array Heatmap"; GST-tagged AIRE (PP); arrays performed twice, total replicate number n = 4
Outline: as §1

MLL5 = settings: sheet "Array Heatmap"; GST-tagged MLL5; arrays performed twice, total replicate number n = 4
Outline: as §1

BAZ2B = settings: sheet "Array Heatmap"; GST-tagged BAZ2B; arrays performed twice, total replicate number n = 4
Outline: as §1

SP140L = settings: sheet "Array Heatmap"; GST-tagged SP140L; arrays performed twice, total replicate number n = 4
Outline: as §1

ING1 = settings: sheet "Array Heatmap"; GST-tagged ING1; arrays performed twice, total replicate number n = 4
Outline: as §1

CHD5 (PPCC) = settings: sheet "Array Heatmap"; GST-tagged CHD5 (PPCC); arrays performed twice, total replicate number n = 4
Outline: as §1

PHRF1 (RP) = settings: sheet "Array Heatmap"; GST-tagged PHRF1 (RP); arrays performed twice, total replicate number n = 4
Outline: as §1

BPTF (PB) = settings: sheet "Array Heatmap"; GST-tagged BPTF (PB); arrays performed twice, total replicate number n = 4
Outline: as §1

PHF8 = settings: sheet "Array Heatmap"; GST-tagged PHF8; arrays performed twice, total replicate number n = 4
Outline: as §1

ING2 = settings: sheet "Array Heatmap"; GST-tagged ING2; arrays performed twice, total replicate number n = 4
Outline: as §1

TAF3 = settings: sheet "Array Heatmap"; GST-tagged TAF3; arrays performed twice, total replicate number n = 4
Outline: as §1

ING3 = settings: sheet "Array Heatmap"; GST-tagged ING3; arrays performed twice, total replicate number n = 4
Outline: as §1

ING5 = settings: sheet "Array Heatmap"; GST-tagged ING5; arrays performed twice, total replicate number n = 4
Outline: as §1

DPF2 (PPC2W2) = settings: sheet "Array Heatmap"; GST-tagged DPF2 (PPC2W2); arrays performed twice, total replicate number n = 4
Outline: as §1

PHF23 = settings: sheet "Array Heatmap"; GST-tagged PHF23; arrays performed twice, total replicate number n = 4
Outline: as §1

KDM5B (3) = settings: sheet "Array Heatmap"; GST-tagged KDM5B (3); arrays performed twice, total replicate number n = 4
Outline: as §1

KDM5B (1) = settings: sheet "Array Heatmap"; GST-tagged KDM5B (1); arrays performed twice, total replicate number n = 4
Outline: as §1

RAG2 = settings: sheet "Array Heatmap"; GST-tagged RAG2; arrays performed twice, total replicate number n = 4
Outline: as §1

KDM7A = settings: sheet "Array Heatmap"; GST-tagged KDM7A; arrays performed twice, total replicate number n = 4
Outline: as §1

KDM5A (3) = settings: sheet "Array Heatmap"; GST-tagged KDM5A (3); arrays performed twice, total replicate number n = 4
Outline: as §1

MORC3 (CW) = settings: sheet "Array Heatmap"; GST-tagged MORC3 (CW); arrays performed twice, total replicate number n = 4
Outline: as §1

PHF21A = settings: sheet "Array Heatmap"; GST-tagged PHF21A; arrays performed twice, total replicate number n = 4
Outline: as §1

PHF13 = settings: sheet "Array Heatmap"; GST-tagged PHF13; arrays performed twice, total replicate number n = 4
Outline: as §1

Substance	Array Heatmap signal, PHF2 (PHF2)	Array Heatmap signal, KDM4C (TTP) (KDM4C (TTP))	Array Heatmap signal, CHD4 (PPCC) (CHD4 (PPCC))	Array Heatmap signal, CHD5 (PCC) (CHD5 (PCC))	Array Heatmap signal, KDM5A (1) (KDM5A (1))	Array Heatmap signal, ING4 (ING4)	Array Heatmap signal, DIDO1 (DIDO1)	Array Heatmap signal, TRIM66 (PB) (TRIM66 (PB))	Array Heatmap signal, AIRE (PP) (AIRE (PP))	Array Heatmap signal, MLL5 (MLL5)	Array Heatmap signal, BAZ2B (BAZ2B)	Array Heatmap signal, SP140L (SP140L)	Array Heatmap signal, ING1 (ING1)	Array Heatmap signal, CHD5 (PPCC) (CHD5 (PPCC))	Array Heatmap signal, PHRF1 (RP) (PHRF1 (RP))	Array Heatmap signal, BPTF (PB) (BPTF (PB))	Array Heatmap signal, PHF8 (PHF8)	Array Heatmap signal, ING2 (ING2)	Array Heatmap signal, TAF3 (TAF3)	Array Heatmap signal, ING3 (ING3)	other results
H3K4ac + K9me1 + K14ac + K18ac: H3 1-20	0.368	0.5174	0.5629	0.8198	0.4805	0.4584	0.5412	0.5413	0.5251	0.5142	0.5783	0.3469	0.4555	0.5431	0.3692	0.3424	0.3261	0.5869	0.2619	0.4265	Array Heatmap signal, ING5 (ING5): 0.3469; Array Heatmap signal, DPF2 (PPC2W2) (DPF2 (PPC2W2)): 0.6154; Array Heatmap signal, PHF23 (PHF23): 0.4792; Array Heatmap signal, KDM5B (3) (KDM5B (3)): 0.497; Array Heatmap signal, KDM5B (1) (KDM5B (1)): 0.6293; Array Heatmap signal, RAG2 (RAG2): 0.2267; Array Heatmap signal, KDM7A (KDM7A): 0.4836; Array Heatmap signal, KDM5A (3) (KDM5A (3)): 0.3935; Array Heatmap signal, MORC3 (CW) (MORC3 (CW)): 0.3311; Array Heatmap signal, PHF21A (PHF21A): 0.4512; Array Heatmap signal, PHF13 (PHF13): 0.5879
H3K4ac + K9me2 + K14ac + K18ac: H3 1-20	0.5092	0.5332	0.5924	0.8289	0.4994	0.4857	0.6996	0.6234	0.5959	0.5581	0.5255	0.3786	0.5602	0.5961	0.5426	0.3687	0.3959	0.6022	0.2754	0.5023	Array Heatmap signal, ING5 (ING5): 0.3863; Array Heatmap signal, DPF2 (PPC2W2) (DPF2 (PPC2W2)): 0.7053; Array Heatmap signal, PHF23 (PHF23): 0.5641; Array Heatmap signal, KDM5B (3) (KDM5B (3)): 0.5157; Array Heatmap signal, KDM5B (1) (KDM5B (1)): 0.6474; Array Heatmap signal, RAG2 (RAG2): 0.2604; Array Heatmap signal, KDM7A (KDM7A): 0.3693; Array Heatmap signal, KDM5A (3) (KDM5A (3)): 0.4792; Array Heatmap signal, MORC3 (CW) (MORC3 (CW)): 0.4166; Array Heatmap signal, PHF21A (PHF21A): 0.517; Array Heatmap signal, PHF13 (PHF13): 0.6376
